The record followed here is PubChem BioAssay (NCI).

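Where inhibition never reached the appropriate level, the endpoint shown equals the highest concentration tested. Otherwise, values were interpolated linearly from a five-concentration, 48-hour dose response in 96-well plates. TGI: total growth inhibition.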 Where a SMILES comes first, the peptide text is derived from it. [ ]: non-standard residue; d: D form. The star is where a group is joined. AllylGly = C=CC[CH](N)C(=O)O; Boc = CC(C)(C)OC(=O)*; OtBu = CC(C)(C)O* Bounds are passed on as bounds.

Among the test systems are CCRF-CEM leukemia; SF-268 CNS; KM12 colon; HOP-92 NSCLC; T-47D breast; SF-539 CNS; HCT-15 colon; A498 renal; SF-295 CNS; NCI-H460 lung.
Holding throughout (assay): NCI-60 cell line screen, 48 h

As to `CCOC(=O)CCC(NC(=O)c1ccc(Oc2nc3ccc(C(F)(F)F)cc3nc2-c2ccccc2)cc1)C(=O)OCC` (stereo not given), the TGI was > 100 µM in the assay on CCRF-CEM leukemia; 42.1 µM in the assay with SF-268 CNS; > 100 µM in the assay with KM12 colon; 98.4 µM in the assay with HOP-92 NSCLC; > 100 µM in the assay on T-47D breast; > 34.3 µM in the assay on SF-539 CNS. Also, the TGI was > 100 µM in the assay with HCT-15 colon, > 31.6 µM in the assay with A498 renal, > 71.6 µM in the assay on SF-295 CNS and > 100 µM in the assay on NCI-H460 lung.

On to `O=P(Oc1ccccc1)(Oc1ccccc1)Oc1c[nH]c2ccccc12`, for which the TGI with CCRF-CEM leukemia is 1.5 µM; with SF-268 CNS, 24.3 µM; in the assay on KM12 colon, > 100 µM; with HOP-92 NSCLC, 7.15 µM; in the assay on T-47D breast, 52.9 µM; with SF-539 CNS, 24 µM. Also, the TGI amounted to 28.8 µM in the assay with HCT-15 colon, 29.1 µM in the assay on A498 renal, 13.1 µM with SF-295 CNS and 26.7 µM in the assay on NCI-H460 lung.

Regarding `C[C@H](Nc1c(O)c2c(c(O)c1Cl)C(=O)C=CC2=O)C(=O)Nc1ccc([N+](=O)[O-])cc1`, the TGI in the assay with CCRF-CEM leukemia was > 10 µM; in the assay with SF-268 CNS it was 5.79 µM; with KM12 colon, 3.66 µM; with HOP-92 NSCLC, 5.16 µM; in the assay with T-47D breast, > 10 µM; in the assay on SF-539 CNS it was 4.2 µM. The TGI amounted to 7.55 µM in the assay on HCT-15 colon, 4.8 µM with A498 renal, 7.54 µM in the assay on SF-295 CNS and 6.29 µM in the assay on NCI-H460 lung.

For `CCCCCNc1nonc1N`, the TGI was > 31.6 µM with CCRF-CEM leukemia; > 100 µM in the assay on SF-268 CNS; > 100 µM with KM12 colon; > 100 µM with HOP-92 NSCLC; > 100 µM in the assay on T-47D breast; > 100 µM in the assay on SF-539 CNS. In addition, the TGI in the assay with HCT-15 colon, in the assay on A498 renal, with SF-295 CNS and with NCI-H460 lung was > 100 µM each time.

Turning to `C=CCC(NC(=O)C(CC(=O)OC(C)(C)C)NC(=O)OC(C)(C)C)C(=O)OC` (stereo not given) (Boc-Asp(OtBu)-[AllylGly]-OMe; configuration not given here), the TGI with CCRF-CEM leukemia, in the assay with SF-268 CNS, in the assay with KM12 colon, in the assay with HOP-92 NSCLC, in the assay with T-47D breast and in the assay on SF-539 CNS was > 100 µM throughout. The TGI with HCT-15 colon, in the assay on A498 renal, with SF-295 CNS and in the assay with NCI-H460 lung was > 100 µM in each case.

Consider `CC(=O)C(=[N+]=[N-])C(=O)OC(C)(C)C#N`, for which the TGI with CCRF-CEM leukemia, in the assay on SF-268 CNS, in the assay with KM12 colon, in the assay on HOP-92 NSCLC, in the assay on T-47D breast and in the assay on SF-539 CNS was > 10 µM in each case. Besides, the TGI in the assay with HCT-15 colon, in the assay on A498 renal, in the assay on SF-295 CNS and in the assay on NCI-H460 lung was > 10 µM each time.

In the case of `O=C(NNC(=S)Nc1ccccc1)c1ccccc1Nc1ccccc1C(=O)NNC(=S)Nc1ccccc1`, the TGI in the assay with CCRF-CEM leukemia was > 100 µM; in the assay with SF-268 CNS, 60.6 µM; in the assay on KM12 colon, > 100 µM; in the assay on HOP-92 NSCLC it was 30.5 µM; in the assay with T-47D breast, > 100 µM; in the assay on SF-539 CNS it was 59.8 µM. Besides, the TGI with HCT-15 colon was > 100 µM; in the assay on A498 renal it was > 100 µM; in the assay with SF-295 CNS, 57.6 µM; with NCI-H460 lung, 49 µM.

`COc1cc(C2c3cc4c(cc3OC(Nc3ccc(C(=O)O)cc3)C2C)OCO4)cc(OC)c1OC` (stereo not given): the TGI was > 41.8 µM with CCRF-CEM leukemia; > 39.1 µM with SF-268 CNS; 1.66 µM in the assay with KM12 colon; > 74.6 µM in the assay with HOP-92 NSCLC; > 100 µM in the assay with T-47D breast; 0.561 µM in the assay on SF-539 CNS. Also, the TGI in the assay with HCT-15 colon, in the assay on A498 renal, in the assay with SF-295 CNS and with NCI-H460 lung was > 100 µM each time.

Consider `Cc1c(CCOC=O)c(=O)[nH]c2nncn12`, for which the TGI in the assay with CCRF-CEM leukemia, with SF-268 CNS, in the assay on KM12 colon, with HOP-92 NSCLC, with T-47D breast and with SF-539 CNS was > 100 µM throughout. Besides, the TGI in the assay with HCT-15 colon, in the assay on A498 renal, with SF-295 CNS and in the assay with NCI-H460 lung was > 100 µM in each case.

Regarding `O=C/C(=C(/Br)I)c1ccccc1`, the TGI was found to be 0.798 µM in the assay on CCRF-CEM leukemia; 7.97 µM in the assay with SF-268 CNS; 19 µM with KM12 colon; 4.64 µM with HOP-92 NSCLC; 3.85 µM with T-47D breast; 6.11 µM in the assay on SF-539 CNS. Moreover, the TGI in the assay on HCT-15 colon came out at 5.65 µM; in the assay with A498 renal, 33.9 µM; in the assay on SF-295 CNS, 13.9 µM; in the assay with NCI-H460 lung, 26.4 µM.

Regarding `CCc1n[nH]c(=O)n1/N=C/c1ccccc1Cl`, the TGI with CCRF-CEM leukemia, with SF-268 CNS, in the assay with KM12 colon, with HOP-92 NSCLC, in the assay on T-47D breast and in the assay with SF-539 CNS was > 100 µM each time. The TGI with HCT-15 colon, with A498 renal, in the assay on SF-295 CNS and in the assay on NCI-H460 lung was > 100 µM in each case.

As to `O=c1cc(N2CCOCC2)[nH]c(=O)n1-c1cccc(C(F)(F)F)c1`, the TGI with CCRF-CEM leukemia, with SF-268 CNS, with KM12 colon, in the assay on HOP-92 NSCLC, in the assay with T-47D breast and with SF-539 CNS was > 100 µM throughout. Besides, the TGI in the assay with HCT-15 colon, in the assay with A498 renal, with SF-295 CNS and in the assay with NCI-H460 lung was > 100 µM each time.

Consider `CC(C)(C)N(Cc1ccc2c(c1)OCO2)C(=O)/C=C\S(=O)c1ccccc1` (stereo not given), for which the TGI is > 100 µM in the assay on CCRF-CEM leukemia; 5.78 µM in the assay on SF-268 CNS; 14 µM in the assay on KM12 colon; 8.18 µM in the assay with HOP-92 NSCLC; 14.3 µM in the assay with T-47D breast; 6.6 µM in the assay with SF-539 CNS. For the same compound, the TGI with HCT-15 colon worked out at 13.2 µM; with A498 renal, 21.4 µM; in the assay on SF-295 CNS, 22.9 µM; in the assay with NCI-H460 lung, 16.9 µM.

`O=[N+]([O-])c1ccc(C2=NOC(c3ccccc3F)N2C23CC4CC(CC(C4)C2)C3)cc1` (stereo not given): the TGI in the assay with CCRF-CEM leukemia, in the assay with SF-268 CNS, in the assay on KM12 colon, with HOP-92 NSCLC, with T-47D breast and with SF-539 CNS was > 100 µM throughout. In addition, the TGI in the assay with HCT-15 colon, in the assay on A498 renal, in the assay on SF-295 CNS and with NCI-H460 lung was > 100 µM in each case.

For the compound `S=C(N/N=C(/c1ccccc1)c1ccccn1)Nc1ccccc1Cl`, the TGI is > 38.1 µM in the assay with CCRF-CEM leukemia; 13.3 µM in the assay with SF-268 CNS; 16.2 µM in the assay on KM12 colon; 11 µM in the assay on HOP-92 NSCLC; 0.857 µM in the assay on T-47D breast; 6.59 µM with SF-539 CNS. Further, the TGI in the assay with HCT-15 colon is 7.36 µM; in the assay with A498 renal, 7.19 µM; in the assay on SF-295 CNS, 7.29 µM; in the assay on NCI-H460 lung, 6.24 µM.

As for `O=C(/C=C/c1ccc(Cl)cc1)Oc1ccc(/C=C2\CCCCC2=O)cc1`, the TGI in the assay with CCRF-CEM leukemia, with SF-268 CNS, in the assay on KM12 colon, in the assay with HOP-92 NSCLC, with T-47D breast and in the assay with SF-539 CNS was > 100 µM each time. Further, the TGI with HCT-15 colon, in the assay on A498 renal, in the assay with SF-295 CNS and in the assay on NCI-H460 lung was > 100 µM throughout.

As to `N#Cc1c(-c2ccc([N+](=O)[O-])cc2)cc(-c2ccc(Nc3ccnc4cc(C(F)(F)F)ccc34)cc2)nc1N`, the TGI with CCRF-CEM leukemia was > 29.7 µM; with SF-268 CNS it was > 72 µM; with KM12 colon, > 47.9 µM; in the assay on HOP-92 NSCLC it was 42 µM; in the assay with T-47D breast it was 28.8 µM; in the assay with SF-539 CNS it was > 63.8 µM. The TGI is 23.6 µM with HCT-15 colon, > 71.3 µM with A498 renal, 37.6 µM in the assay on SF-295 CNS and > 66.5 µM in the assay with NCI-H460 lung.

For the compound `CCNC1(c2cccc(C)c2)OC(C)(C)c2cccc3cccc1c23` (stereo not given), the TGI with CCRF-CEM leukemia is 26.4 µM; with SF-268 CNS it was 30.9 µM; in the assay on KM12 colon, 69.8 µM; in the assay on HOP-92 NSCLC, 22.4 µM; with T-47D breast it was > 100 µM; with SF-539 CNS it was 34.9 µM. The TGI in the assay on HCT-15 colon was 42.9 µM; with A498 renal it was 32.2 µM; in the assay on SF-295 CNS it was 35.2 µM; with NCI-H460 lung, 30 µM.
